Read-outs that look alike come from different tables or passages of the source.
Test: Study A16 Part 1: PK of single ascending oral doses of fospropofol disodium (200 to 2000 mg), fasted healthy adults
Format: in vivo, human
Settings: for AUC / Cmax / Tmax / AUC(0-t) / AUC(0-inf) / half-life: both sexes, human, plasma; for Cmax: read-out: Fospropofol Cmax; for AUC(0-t): read-out: Fospropofol AUC0-T; for AUC(0-inf): read-out: Fospropofol AUC0-∞; for half-life: read-out: Fospropofol t1/2 (converted)
Protocol: Part 1 of Study A16 was a double-blind, randomized, placebo-controlled study to investigate the safety-tolerability and PK of oral administration of single ascending doses of fospropofol disodium to healthy adult male and female volunteers.
Subjects were healthy adults (age 18-55 years inclusive, BMI 18-29.9 kg/m^2). Separate cohorts of 12 subjects each were randomized to receive fospropofol disodium at doses of 200, 400, 800, 1000, 1200, 1600, or 2000 mg (n=10 per cohort) or matching placebo (n=2 per cohort).
Subjects were admitted to the clinical unit for an overnight fast (Day −1), administered study drug on Day 1, and remained in the clinical unit until Day 2.
Fospropofol disodium was formulated as powder in an HPMC capsule, each capsule containing 200 mg of fospropofol disodium (weight adjusted for water content). Placebo was administered as an appropriate number of matching capsules.
Based on PK results from the early cohorts, sampling times were optimized beginning with Cohort 3 (800 mg) to preclose, 5, 10, 15, 20, 25, 30, 37, and 45, minutes and 1, 2, 4, 6, and 9 hours after closing.

[1] = oral fospropofol disodium 200 mg, mean
[2] = oral fospropofol disodium 400 mg, mean
[3] = oral fospropofol disodium 800 mg, mean
[4] = oral fospropofol disodium 1000 mg, mean
[5] = oral fospropofol disodium 1200 mg, mean
[6] = oral fospropofol disodium 1600 mg, mean
[7] = oral fospropofol disodium 2000 mg, mean

For CC(C)c1cccc(C(C)C)c1OCOP(=O)(O)O [fospropofol, (2,6-diisopropylphenoxy)methyl dihydrogen phosphate], the “Dose proportionality of fospropofol AUC0-2h, AUC0-T, AUC0-∞, and Cmax (power model)” value (200 mg to 2000 mg) was “close proportional”, the AUC (oral, 800 mg, subjects 301-312 (800 mg cohort), Mean, read-out: Fospropofol AUC1) was 2780 ng·h/mL and the AUC (oral, 800 mg, subjects 301-312 (800 mg cohort), Mean, read-out: Fospropofol AUC2) was 3330 ng·h/mL. The AUC (oral, 800 mg, subjects 301-312 (800 mg cohort), Mean, read-out: Fospropofol AUC4) was 3440 ng·h/mL, the Cmax (oral, 800 mg, subjects 301-312 (800 mg cohort), Mean) was 6040 ng/mL and the Tmax (oral, 800 mg, subjects 301-312 (800 mg cohort), Mean, read-out: Fospropofol Tmax) was 20.4 min. It also gave a Tmax (oral, 800 mg, subjects 301-312 (800 mg cohort), individual subjects (Subject No. in c0), read-out: Fospropofol Tmax) of 30 min, a Tmax (oral, 200 to 2000 mg cohorts, read-out: Fospropofol median Tmax (converted)) of ~20 min and a Cmax (po, 200 mg, oral fospropofol disodium 200 mg, mean) of 1980 ng/mL. For the same molecule, the Tmax (po, 200 mg, oral fospropofol disodium 200 mg, median, read-out: Fospropofol Tmax) was 19.8 min, the Cmax (po, 400 mg, oral fospropofol disodium 400 mg, mean) was 4460 ng/mL and the Tmax (po, 400 mg, oral fospropofol disodium 400 mg, median, read-out: Fospropofol Tmax) was 19.8 min. For the same molecule, the Cmax (po, 800 mg, oral fospropofol disodium 800 mg, mean) was 6040 ng/mL, the Tmax (po, 800 mg, oral fospropofol disodium 800 mg, median, read-out: Fospropofol Tmax) was 19.8 min and the Cmax (po, 1000 mg, oral fospropofol disodium 1000 mg, mean) was 8240 ng/mL. For the same molecule, the Tmax (po, 1000 mg, oral fospropofol disodium 1000 mg, median, read-out: Fospropofol Tmax) was 19.8 min, the Cmax (po, 1200 mg, oral fospropofol disodium 1200 mg, Fasted (Cohort 5), n = 10, mean) was 7110 ng/mL and the Tmax (po, 1200 mg, oral fospropofol disodium 1200 mg, Fasted (Cohort 5), n = 10, median, read-out: Fospropofol Tmax) was 19.8 min. The Cmax (po, 1200 mg, oral fospropofol disodium 1200 mg, mean) was 7110 ng/mL, the Tmax (po, 1200 mg, oral fospropofol disodium 1200 mg, median, read-out: Fospropofol Tmax) was 19.8 min and the Cmax (po, 1600 mg, oral fospropofol disodium 1600 mg, mean) was 10200 ng/mL. The Tmax (po, 1600 mg, oral fospropofol disodium 1600 mg, median, read-out: Fospropofol Tmax) was 19.8 min, the Cmax (po, 2000 mg, oral fospropofol disodium 2000 mg, mean) was 17100 ng/mL and the Tmax (po, 2000 mg, oral fospropofol disodium 2000 mg, median, read-out: Fospropofol Tmax) was 22.8 min. For the same molecule, the AUC(0-t) [1] was 856 ng·h/mL, the AUC(0-inf) [1] was 882 ng·h/mL and the half-life [1] was 12.6 min. The AUC(0-t) [2] was 2200 ng·h/mL, the AUC(0-inf) [2] was 2230 ng·h/mL and the half-life [2] was 14.4 min. The AUC(0-t) [3] was 3290 ng·h/mL, the AUC(0-inf) [3] was 3360 ng·h/mL and the half-life [3] was 16.2 min. It also gave an AUC(0-t) [4] of 4700 ng·h/mL, an AUC(0-inf) [4] of 4840 ng·h/mL and a half-life [4] of 17.4 min. For the same molecule, the AUC(0-t) [5] was 4400 ng·h/mL, the AUC(0-inf) [5] was 4500 ng·h/mL and the half-life [5] was 20.4 min. For the same molecule, the AUC(0-t) [6] was 6090 ng·h/mL, the AUC(0-inf) [6] was 6300 ng·h/mL and the half-life [6] was 21 min. For the same molecule, the AUC(0-t) [7] was 10800 ng·h/mL, the AUC(0-inf) [7] was 11000 ng·h/mL and the half-life [7] was 22.2 min. The “Fospropofol concentration relative to Cmax” value (by 2 hours after dosing) was “less than 10 % of Cmax”, the “Fospropofol AUC0-T/mg FOSP DiNa” value (dose 200 mg FOSPDiNa) was 4.28 (ng · h/mL)/mg and the “Fospropofol AUC0-∞/mg FOSP DiNa” value (dose 200 mg FOSPDiNa) was 4.41 (ng · h/mL)/mg. The “Fospropofol Cmax/mg FOSP DiNa” value (dose 200 mg FOSPDiNa) was 9.89 (ng/mL)/mg, the “Fospropofol AUC0-T/mg FOSP DiNa” value (dose 400 mg FOSPDiNa) was 5.51 (ng · h/mL)/mg and the “Fospropofol AUC0-∞/mg FOSP DiNa” value (dose 400 mg FOSPDiNa) was 5.58 (ng · h/mL)/mg. The “Fospropofol Cmax/mg FOSP DiNa” value (dose 400 mg FOSPDiNa) was 11.15 (ng/mL)/mg, the “Fospropofol AUC0-T/mg FOSP DiNa” value (dose 800 mg FOSPDiNa) was 4.11 (ng · h/mL)/mg and the “Fospropofol AUC0-∞/mg FOSP DiNa” value (dose 800 mg FOSPDiNa) was 4.20 (ng · h/mL)/mg. The “Fospropofol Cmax/mg FOSP DiNa” value (dose 800 mg FOSPDiNa) was 7.55 (ng/mL)/mg, the “Fospropofol AUC0-T/mg FOSP DiNa” value (dose 1000 mg FOSPDiNa) was 4.70 (ng · h/mL)/mg and the “Fospropofol AUC0-∞/mg FOSP DiNa” value (dose 1000 mg FOSPDiNa) was 4.85 (ng · h/mL)/mg. The “Fospropofol Cmax/mg FOSP DiNa” value (dose 1000 mg FOSPDiNa) was 8.24 (ng/mL)/mg, the “Fospropofol AUC0-T/mg FOSP DiNa” value (dose 1200 mg FOSPDiNa) was 3.67 (ng · h/mL)/mg and the “Fospropofol AUC0-∞/mg FOSP DiNa” value (dose 1200 mg FOSPDiNa) was 3.75 (ng · h/mL)/mg. The “Fospropofol Cmax/mg FOSP DiNa” value (dose 1200 mg FOSPDiNa) was 5.93 (ng/mL)/mg, the “Fospropofol AUC0-T/mg FOSP DiNa” value (dose 1600 mg FOSPDiNa) was 3.81 (ng · h/mL)/mg and the “Fospropofol AUC0-∞/mg FOSP DiNa” value (dose 1600 mg FOSPDiNa) was 3.94 (ng · h/mL)/mg. For the same molecule, the “Fospropofol Cmax/mg FOSP DiNa” value (dose 1600 mg FOSPDiNa) was 6.40 (ng/mL)/mg, the “Fospropofol AUC0-T/mg FOSP DiNa” value (dose 2000 mg FOSPDiNa) was 5.41 (ng · h/mL)/mg and the “Fospropofol AUC0-∞/mg FOSP DiNa” value (dose 2000 mg FOSPDiNa) was 5.49 (ng · h/mL)/mg. The “Fospropofol Cmax/mg FOSP DiNa” value (dose 2000 mg FOSPDiNa) was 8.54 (ng/mL)/mg.
